Legend:
Venturia inaequalis = test: Venturia test (apple) / protective; assay type: in vivo; conditions: 288 h, apple plants, protective spray, application rate 100 g/ha, evaluation 12 days after inoculation, read-out: % Efficacy
Procedure: Venturia Test (apple)/Protective [table] To produce a suitable preparation of active compound, 1 part by weight of active compound is mixed with the stated amounts of solvent and emulsifier, and the concentrate is diluted with water to the desired concentration. To test for protectivity activity, young plants are sprayed with the preparation of active compound at the stated application rate. After the spray coating has dried on, the plants are inoculated with an aqueous conidia suspension of the apple scab pathogen Venturia inaequalis and then remain in an incubation cabin at approximately 20° C. and 100% relative atmospheric humidity for 1 day. The plants are then placed in a greenhouse at approximately 21° C. and a relative atmospheric humidity of approximately 90%. Evaluation is carried out 12 days after the inoculation. 0% means an efficacy which corresponds to that of the control, whereas an efficacy of 100% means that no infection is observed.

Sphaerotheca fuliginea = test: Sphaerotheca test (cucumber) / protective; assay type: in vivo; conditions: Podosphaera fuliginea, 240 h; cucumber plants, protective spray, application rate 100 g/ha, evaluation 10 days after inoculation; read-out: % Efficacy
Procedure: (§1) Sphacrotheca Test (cucumber)/Protective [table] To produce a suitable preparation of active compound, 1 part by weight of active compound is mixed with the stated amounts of solvent and emulsifier, and the concentrate is diluted with water to the desired concentration. To test for protectivity activity, young plants are sprayed with the preparation of active compound at the stated application rate. After the spray coating has dried on, the plants are inoculated with an aqueous spore suspension of Sphaerotheca fuliginea. The plants are then placed in a greenhouse at approximately 23° C. and a relative atmospheric humidity of approximately 70%. Evaluation is carried out 10 days after the inoculation. 0% means an efficacy which corresponds to that of the control, whereas an efficacy of 100% means that no infection is observed.

Podosphaera leucotricha = test: Podosphaera test (apple) / protective; assay type: in vivo; conditions: 240 h, apple plants, protective spray, application rate 100 g/ha, evaluation 10 days after inoculation, read-out: % Efficacy
Procedure: as §1, with “Podosphaera” for “Sphacrotheca”, “(apple)/Protective Solvent: 24.5 parts by weight of acetone • 24.5 parts by weight of dimethylacetamide Emulsifier; 1.0 part by weight of alkyl-aryl polyglycol ether” for “(cucumber)/Protective [table]”, “protectiv” for “protectivity”, “the apple mildew pathogen Podosphaera leucotricha.” for “Sphaerotheca fuliginea.”

Puccinia recondite = test: Puccinia test (wheat) / protective; assay type: in vivo; conditions: wheat plants, protective spray, application rate 250 g/ha, evaluation 10 days after inoculation
Procedure: Puccinia Test (wheat)/Protective [table] To produce a suitable preparation of active compound, 1 part by weight of active compound is mixed with the stated amounts of solvent and emulsifier, and the concentrate is diluted with water to the desired concentration. To test for protective activity, young plants arc sprayed with the preparation of active compound at the stated application rate. After the spray coating has dried on, the plants are sprayed with a conidia suspension of Puccinia recondite. The plants remain in an incubation cabin at 20° C. and 100% relative atmospheric humidity for 48 hours. The plants are then placed in a greenhouse at a temperature of approximately 20° C. and a relative atmospheric humidity of 80% to promote the development of rust pustules. Evaluation is carried out 10 days after the inoculation. 0% means an efficacy which corresponds to that of the control, whereas an efficacy of 100% means that no infection is observed.

[1] = test system: Gloeophyllum trabeum, Coniophora puteana, Poria placenta, Lentinus tigrinus and Coriolus versicolor; test: Inhibition test on giant colonies of Basidiomycetes; assay type: cell-based; conditions: inhibition of hyphal growth on malt extract peptone agar at 26° C., 6 ppm active compound; read-out: % efficacy
Procedure: Inhibition Test on Giant Colonies of Basidiomycetes Mycelium sections were removed from colonies of Gloeophyllum trabeum, Coniophora puteana, Poria placenta, Lentinus tigrinus and Coriolus versicolor and incubated on an agar medium containing malt extract peptone at 26° C. The inhibition of hyphal growth on active-compound-containing media was compared with the longitudinal growth on media without an addition of active compound and rated as per cent inhibition.

Alternaria solani = test: Alternaria test (tomato) / protective; assay type: in vivo; conditions: tomato plants, protective spray, application rate 750 g/ha, evaluation 7 days after inoculation
Procedure: Alternaria Test (tomato)/Protective [table] To produce a suitable preparation of active compound, 1 part by weight of active compound is mixed with the stated amounts of solvent and emulsifier, and the concentrate is diluted with water to the desired concentration. To test for protective activity, young tomato plants are sprayed with the preparation of active compound at the stated application rate. 1 day after the treatment, the plants are inoculated with a spore suspension of Alternaria solani and then remain at 100% rel. humidity and 20° C. for 24 h. The plants then remain at 96% rel. atmospheric humidity and a temperature of 20° C. Evaluation is carried out 7 days after the inoculation. 0% means an efficacy which corresponds to that of the control, whereas an efficacy of 100% means that no infection is observed.

Structure (SMILES)	pest or weed control at 100 g/ha (Venturia inaequalis)	pest or weed control at 100 g/ha (Sphaerotheca fuliginea)	pest or weed control at 100 g/ha (Podosphaera leucotricha)	% Efficacy (Puccinia recondite)	Emax at 6 ppm [1]	% Efficacy (Alternaria solani)
CCCCO/N=C/c1ccc(-c2ccccc2NC(=O)c2cn(C)nc2C(F)(F)F)cc1 [Example I-22]	100%	100%	100%	–	–	–
Cn1cc(C(=O)Nc2ccccc2-c2ccc(/C=N\O)cc2)c(C(F)(F)F)n1 [Example I-41]	100%	72%	98%	–	–	–
CCO/N=C\c1ccc(-c2ccccc2NC(=O)c2sc(C)nc2C(F)(F)F)cc1 [Example I-4]	100%	93%	95%	–	–	–
CCCCO/N=C\c1ccc(-c2ccccc2NC(=O)c2sc(C)nc2C(F)(F)F)cc1 [Example I-3]	100%	100%	100%	100%	–	–
CCO/N=C(/C)c1ccc(-c2ccccc2NC(=O)c2cn(C)nc2C(F)(F)F)cc1 [Example I-24]	100%	92%	75%	–	–	–
CCCO/N=C/c1ccc(-c2ccccc2NC(=O)c2sc(C)nc2C(F)(F)F)cc1 [Example I-23]	100%	100%	100%	–	–	–
CO/N=C\c1cc(-c2ccccc2NC(=O)c2cn(C)nc2C(F)(F)F)ccc1/C=N/OC [Example I-50]	100%	97%	93%	–	–	–
CO/N=C/c1ccc(-c2ccccc2NC(=O)c2sccc2C)cc1 [Example I-47]	100%	100%	100%	–	–	–
CO/N=C\c1ccc(-c2ccccc2NC(=O)c2cn(C)nc2C(F)(F)F)cc1 [Example I-10]	88%	88%	88%	100%	100%	–
CO/N=C/c1cccc(-c2ccccc2NC(=O)c2cn(C)nc2C(F)(F)F)c1 [Example I-52]	100%	97%	77%	–	–	–
CO/N=C/c1ccc(-c2c(C)cccc2NC(=O)c2sc(C)nc2C(F)(F)F)cc1 [Example I-51]	100%	100%	100%	100%	–	–
CO/N=C(\C)c1ccc(-c2ccccc2NC(=O)c2sc(C)nc2C(F)(F)F)cc1 [Example I-6]	–	–	–	–	–	90%
CCCO/N=C/c1ccc(-c2ccccc2NC(=O)c2cn(C)nc2C(F)(F)F)cc1 [Example I-28]	100%	100%	99%	–	–	–
CO/N=C/c1ccc(-c2ccccc2NC(=O)c2cn(C)nc2C(F)(F)F)cc1Cl [Example I-49]	100%	100%	100%	100%	–	–
CO/N=C\c1ccc(-c2ccccc2NC(=O)c2cccnc2Cl)cc1 [Example I-20]	100%	100%	100%	100%	–	–
CO/N=C\c1ccc(-c2ccccc2NC(=O)c2cn(C)nc2C)cc1 [Example I-12]	–	–	–	–	100%	–
CO/N=C/c1cccc(-c2ccccc2NC(=O)c2sc(C)nc2C(F)(F)F)c1 [Example I-2]	–	–	–	–	–	100%
CC(C)O/N=C/c1ccc(-c2ccccc2NC(=O)c2cn(C)nc2C(F)(F)F)cc1 [Example I-26]	100%	100%	100%	–	–	–
CO/N=C/c1ccc(-c2ccccc2NC(=O)c2cn(C)nc2C(F)F)cc1 [Example I-11]	100%	95%	93%	–	100%	95%
CO/N=C/c1ccc(-c2ccccc2NC(=O)c2sc(C)nc2C(F)(F)F)cc1 [Example I-1]	100%	100%	100%	100%	100%	100%
Cc1nc(C(F)(F)F)c(C(=O)Nc2ccccc2-c2ccc(/C=N\OC(C)C)cc2)s1 [Example I-5]	100%	100%	100%	–	–	–

Source: patent US7176228B2, “Pyrazole biphenylcarboxamides” (Bayer Cropscience AG, priority 2000, dated 2007)
